The values below come from US5863913A, “Aromatic compound and pharmaceutical composition” (Kureha Chemical Industry Co., Ltd., priority 1996, dated 1999).

The nature of data set [1]: Oral absorption (amount of compound in rat serum by HPLC, area under curve). The class given is in vivo, Sprague-Dawley female rats. Particulars: single dosage 160 mg/kg in water, 0.5 to 24 hours, average of 3 rats. The method, then: Twelve-week-old Sprague-Dawley female rats (3 rats per group) were bred for acclimation for a week. Then, the compounds of the present invention and a reference substrate were dissolved in water, and orally administered to the rats in a single dosage (160 mg/kg). After 0.5 hour, 1 hour, 2 hours, 4 hours, 6 hours, 8 hours, and 24 hours, the amounts of each compound (ng) per 1 ml of serum were measured using HPLC. Curves were obtained from the relation between an elapsed time after administration and the amount of the compound in serum at each elapsed time, respectively, and an average of the areas under the curves was calculated.
As a reference substance, Compound No. 184 disclosed in Japanese Unexamined Patent Publication (Kokai) No. 8-48651 was used. Compound No. 184 corresponds to the compound of the formula (I) wherein R^1 =nBu, A=N, Z=C, R^2 =CO, R^3 =NC4 H8 O, R^4 =H, R^5 =Me, and R^6 =Me.

A further data set has as its system ICR female mice. The data set can be described thus: Acute toxicity, single oral dose in mice. Conditions: mouse, in vivo. The method, then: The aromatic compounds of the formula (I) according to the present invention were orally administered to mice at the dose of 500 mg/kg, but no fatalities were observed over a period of one week.
Five-week-old ICR female mice (5 mice per group) were bred for acclimation for a week. Then, the compounds of the present invention were dissolved in water, and orally administered to the mice in a single dosage (500 mg/kg).

Data set [2] deals with T1, angiotensin II receptor subtype 1 (AT1) (Oryctolagus cuniculus, UniProt P34976).
T1 construct: receptor : from adrenal glands in rabbits; from tissue; host or cells: rabbit adrenal glands
T1 sequence (P34976 1-359): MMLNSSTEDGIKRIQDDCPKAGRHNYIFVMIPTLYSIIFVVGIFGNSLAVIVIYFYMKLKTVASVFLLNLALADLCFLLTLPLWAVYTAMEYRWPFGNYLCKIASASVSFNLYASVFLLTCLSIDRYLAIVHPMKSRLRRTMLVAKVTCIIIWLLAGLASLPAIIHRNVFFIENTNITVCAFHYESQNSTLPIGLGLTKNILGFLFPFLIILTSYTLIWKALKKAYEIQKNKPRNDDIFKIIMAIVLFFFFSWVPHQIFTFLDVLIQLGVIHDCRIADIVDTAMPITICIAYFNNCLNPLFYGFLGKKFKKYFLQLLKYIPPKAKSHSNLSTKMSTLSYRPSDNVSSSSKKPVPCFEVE
The data set can be described thus: Binding to receptors: angiotensin II receptor subtype 1 (AT1). Details: species or system rabbits (adrenal glands). Conditions: rabbit adrenal glands, tracer 3H-angiotensin II. The protocol:
In this Example, the affinity to the angiotensin II receptor subtype 1 or subtype 2 was evaluated by a binding assay in accordance with the method described in Biochem. Pharmacol., 33, 4057-4062 (1984).
Specifically, the measurement of the total binding in the presence of each drug was performed as follows:
A mixture (final volume=0.25 ml) of a drug in a given concentration (the drug was dissolved in DMSO, and diluted to a double volume with a buffer attached to a drug discovery system to prepare a sample for the assay; 0.025 ml), a tracer (0.025 ml), and receptors (0.2 ml) was incubated [in the case of the angiotensin II receptor subtype 1 (AT1), at room temperature for 3 hours, and in the case of the subtype 2 (AT2), at 37° C. for 1 hour]. Then, the reaction mixture was filtered with suction (GF/C filter was used in AT1, and GF/B filter was used in AT2). The filter papers after filtration with suction (the tracer bound to the receptors) were counted by a γ-well counter (ARC-500, Aloka). The non-specific bindings were measured by repeating the above method, except that a large excess amount of a displacer was added. The specific binding of the drug in the given concentration was calculated by subtracting the non-specific binding from the total binding, respectively.
receptor : from adrenal glands in rabbits
tracer : ^3 Hangiotensin II

Data set [3] concerns kidney disease model rats. The data set can be described thus: Action to lower blood pressure in kidney disease model rats (tail cuff). The class given is in vivo, Sprague-Dawley female rats. Particulars: systolic, average of 8 rats, 20 mg/kg with drinking water, two days after administration; control 210. The protocol:
(§1) The compounds of the present invention and the reference substance were administered with drinking water to kidney disease model rats, and the action of lowering the blood pressure was observed. The kidney disease model rats were prepared by a ligature of branches of renal artery in accordance with a conventional method. Namely, the left hilum renalis of Sprague-Dawley female rats was exposed under anesthesia, and one of four secondary branches of the renal artery was left unligated, while the remaining three branches were ligated, respectively. After a week, the hilum renalis (artery, vein, and ureter) of the right kidney were further ligated to thereby prepare rats whose renal function was lowered to approximately 1/8 of the normal function. Each group consisted of eight rats. The drugs to be tested (20 mg/kg) were administered to each administering group, and only water was administered to a control group. Two days after the administration, the systolic blood pressure was measured by the tail cuff method using a blood pressure measuring apparatus (UR5000; Ueda).

In data set [4] the test system is kidney disease model rats. The data set can be described thus: Renal function indicatory value in kidney disease model rats. Particulars: 20 mg/kg/day with drinking water, six weeks. In kind it is in vivo, Sprague-Dawley female rats. The protocol: as §1, with “The” for “The compounds of the present invention and the reference substance were administered with drinking water to kidney disease model rats, and the action of lowering the blood pressure was observed. The”
The rats in each group were allowed to freely take up food. […] To the rats in the control group, only water was administered every day. After six weeks, 0.2 ml of blood was collected from the carotid artery of the rats under anesthesia, and centrifuged to obtain serum. Using 25 μl of the serum, the serum creatinine (Scr) was measured by a creatinine analytical instrument (Beckman). Using 10 μl of the serum, the blood urea nitrogen (BUN) was measured by a BUN analytical instrument (Beckman). The creatinine clearance was evaluated as follows:
After the serum creatinine measurement, rats were placed in urinary metabolic cages for 24 hours to collect urine. A urinary creatine concentration (Ucr) was measured by a creatinine analytical instrument, and a total volume of urination (Uvol) was also measured. The creatinine clearance (CCr) was calculated by the following formula: [formula]

In data set [5] the test system is kidney disease model rats. The data set is described as follows: Survival time of kidney diseased animals. The class given is in vivo, Sprague-Dawley female rats. Conditions: 20 mg/kg/day with drinking water, observation period eight weeks (upper limit); control 5.0. The method, then: as §1
The kidney disease model rats were prepared as in Example 54. Twenty-two groups (8 rats per group) were prepared in a manner such that there was no major difference between the groups in the serum creatinine value and the blood urea nitrogen value indicating renal function. The rats in each group were allowed to freely take up food. […] To the rats in the control group, only water was administered every day. If kidney diseases are aggravated, the rat will die of uremia. Thus, the survival time was observed as a comprehensive indication of the improvement of the effect on the kidney diseases. The observation period was eight weeks. Thus if all rats survived, the average survival time is eight weeks, and is an upper limit.

As for `CCCCC(=O)N(Cc1ccc(C(=O)O)cc1)c1cc(C(=O)N2CCN(CCC)CC2)ccc1N(C)C` [Compound No. 11, 4-dimethylamino-3-N-[[(4-carboxyphenyl)methyl]valeramido]benzoic acid 4'-n-propylpiperazide], the exposure (AUC) (in general, concentration integrated over time) at 24 h in data set [1] is 76000 ng·h/mL. The “Number of deaths/number of survivals” value in the data set with ICR female mice is reported as 0/5. In addition, the inhibition (in general, the relative decrease from the control value, in per cent) at 100 µM in data set [2] was found to be 0%. The “Blood Pressure” value in data set [3] is reported as 204 mmHg. For the same compound, in data set [4] (24 hours urine, control 0.22), the Creatinine clearance turned out to be 0.42 mL/min. In data set [4] (serum, control 2.0), this compound yielded a Creatinine of 1.2 mg/dL. This compound had a Blood urea nitrogen in data set [4] (serum, control 100) of 62 mg/dL. In data set [5], this compound showed an Average survival time of 7.3 weeks.

For the compound `CCCCC(=O)N(Cc1ccc(C(=O)O)cc1)c1cc(C(=O)N2CCOCC2)ccc1N(C)C` [reference substance, 3-N-[[(4-carboxyphenyl)methyl]valeramido]-4-dimethylaminobenzoic acid morpholide, reference compound], the AUC at 24 h in data set [1] is 622 ng·h/mL.
